These results are taken from US20240307497A1, “ADIPONECTIN ALONE OR IN COMBINATION WITH EXTRACORPOREAL PHOTOPHERESIS (ECP) FOR IMMUNE RELATED ADVERSE EVENTS OF IMMUNE CHECKPOINT INHIBITORS” (Mallinckrodt Pharmaceuticals Ireland Limited, priority 2022, published 2024).

Data set [1] has as its system DSS/anti-PD1-induced colitis. In words: DSS/anti-PD1-induced colitis model. It counts as in vivo, mice. Conditions: for ICI-induced colonic inflammation, combination with ECP: ECP plus agent vs ECP plus vehicle, FIGS. 4i-p; for severity of ICI-induced colitis (bodyweight, colon length, neutrophil and lymphocyte infiltration): monotherapy vs vehicle, daily days 3-7, FIGS. 4a-h. The protocol: For modeling ECP transplantation in vivo, splenocytes of donor mice were used. Donor animals were treated identically to the respective recipient groups. Spleens were harvested, meshed and erythrocytes were lysed. Splenocytes were resuspended to 3-5×10^6 cells/mL in RPMI, supplemented with 10% FCS and 1% P/S, and treated with 200 ng/mL 8-methoxypsoralen (8-MOP; Uvadex©, Therakos) at 37° C. and 5% CO2 for 30 min. Following incubation, the cells were exposed to UVA light (2 J/cm2) in a calibrated BS-02 irradiation chamber, operated in dose-controlled mode (Opsytec Dr. Gröbel). ECP-treated splenocytes were resuspended in PBS and […] were injected intravenously into recipient mice. Where indicated, PBMCs were treated with ECP comparably to splenocytes and 107 PBMCs were injected intravenously into recipient mice. PBMCs from mouse EDTA-blood were isolated using Ficoll-Paque PREMIUM 1.084 (Cytiva). For ECP-treatment of epithelial cells, 6×10^6 MODE-K cells were seeded onto 10 cm dishes one day before ECP-treatment. The next day, cells were treated with 8-methoxypsoralen and UVA light in a calibrated BS-02 irradiation chamber. Cells were washed with PBS and 2×10^6 ECP-treated MODE-K cells were injected intravenously into recipient mice.
(§1) For the induction of acute colitis, mice received 3% Dextran Sodium Sulfate (DSS colitis grade, 36-50 kDa; MP Biomedicals) in drinking water from day 0 to day 3, followed by normal drinking water. Mice were injected i.p. with 0.2 mg immune checkpoint inhibitor (ICI) or the respective isotype controls on days 0, 3 and 6 of the experiment. Recipients were transplanted i.v. with 107 ECP-treated donor splenocytes on days 3 and 6. In some experiments, steroid, adiponectin or AdipoRon were applied daily from days 3-7. Arginase-1 inhibitor was applied twice per day from days 4-7. STAT6 or PPARγ inhibitors were applied from day 4-7. Mice were injected with Clodrosomes on days 1, 3, 5 and 7. If not indicated differently, mice were sacrificed in day 8 by retroorbital bleeding to harvest serum and organs which were harvested for histopathological scoring and gene expression analysis.
ICI treatment consisted of either 0.2 mg anti-PD1 (mouse, clone RMP1-14; Ichorbio) or 0.2 mg anti-CTLA4 (mouse, clone 9D9; Ichorbio) per injection intraperitoneally. Controls were Rat IgG2a Isotype Control (clone 1-1, Ichorbio) and Mouse IgG2b Isotype Control (clone MPC-11, Ichorbio), respectively. […]
(§2) Colon, liver, skin and lung were harvested, formalin-fixed and paraffin embedded. Sections were stained with H&E and scored by an experienced pathologist, based on histopathological characterization of human irAEs, including lymphocyte and neutrophil infiltration, crypt abscesses, and apoptotic cells on a scale from 0 (absent) to 2 (massive). […]

For data set [2], the system named is DSS/anti-CTLA4-induced colitis. The data set can be described thus: DSS/anti-CTLA4-induced colitis model. Conditions: AdipoRon vs vehicle; FIGS. S10a-S10d. It counts as in vivo, mice. The protocol: as §1, with “If not indicated differently, mice were sacrificed in day 8 by retroorbital bleeding to harvest serum and organs which were harvested for histopathological scoring and gene expression analysis.” left out
as §2
For quantification of adiponectin concentrations in murine serum specimen, blood was harvested by retroorbital bleeding and serum was isolated by centrifugation. Adiponectin concentrations were measured using Adiponectin Mouse ELISA Kit (ThermoFisher) at 20,000-fold dilution.

The test system of data set [3] is F4/80^+ macrophages (BMDMs). In words: Arg1 in BMDMs exposed to recombinant adiponectin or AdipoRon. It counts as cell-based, mouse. The settings on record: increasing concentrations, 48 h, vs vehicle. The protocol: BMDMs were generated from bone marrow after erythrocyte lysis. Cells were cultured in RPMI supplemented with 10% FCS, 1% P/S and 20 ng/mL rmM-CSF (Peprotech). Culture medium was replaced on days 5 and 6. Cells were used on day 7 with a purity >95%, confirmed by surface CD11b and F4/80 expression. BMDMs (M0) were polarized for 16 h into M1 with 50 ng/mL rmIFNγ (Peprotech) and 20 ng/mL LPS (Sigma), or into M2 with 20 ng/mL rmIL-4 (Peprotech). If indicated, BMDMs were treated with increasing concentrations of recombinant adiponectin/Acrp30 (GenScript) or AdipoRon (MedChemExpress) for 48 h.
Spleens were isolated, meshed and erythrocytes were lysed. Single cell suspensions of tissues were prepared as described. Viability was analyzed by either Zombie NIR fixable dye (BioLegend) or LIVE/DEAD Fixable Aqua (Invitrogen) staining. Fc receptors were blocked with anti-mouse CD16/CD32 (BioLegend) for 10 min at 4° C., followed by surface staining with fluorochrome-conjugated antibodies for 30 min at 4° C. […] Antigen-specific CD8 T-cells were analyzed after H-2Kb/OVA^257-264 dextramer staining (Immudex). […] All data were acquired on a BD LSR Fortessa (BD Biosciences) and analyzed with FlowJo v10 (TreeStar). […] Data was acquired with a Canto II flow cytometer (BD Biosciences) and analyzed using FACSDiva Software V6 (BD Biosciences).

The subject of another data set is ICI-hepatitis. Conditions: cited from earlier work; for Response / Steroid reduction: case reports.
For a further data set, the system named is ICI-colitis. The settings on record: cited from earlier work; for ORR (clinical remission) / response rate: retrospective observational cohort, best response at any time point.
The test system of the next data set is pan T-cells. The data set can be described thus: T-cell activation with anti-CD3/CD28 beads in the presence of adiponectin. It counts as cell-based, mouse. Conditions: 72 h, vs vehicle. The protocol: (§3) Splenic T-cells were isolated from C57BL/6 donors using Pan T-cell isolation kit II (Miltenyi) and activated using anti-CD3/CD28 beads (ThermoScientific) in the presence of 30 U/mL rmIL2 (Peprotech). T-cells were treated with 9 μg/mL recombinant murine adiponectin (GenScript) or vehicle for 72 h. C57BL/6 recipients received 1% DSS (MP Biomedicals) in drinking water from day 0 to day 3, followed by normal drinking water to induce mild colitis. Mice were injected i.p. with 0.2 mg anti-PD1 on day 0, day 3 and day 6 of the experiment. On day 4, activation beads were removed, T-cells were washed and 5×106 T-cells were intravenously injected into colitis animals. Colitis tissue was harvested on day 8. T-cells were stained for CD25 surface expression to determine activation.
Spleens were isolated, meshed and erythrocytes were lysed. Single cell suspensions of tissues were prepared as described. Viability was analyzed by either Zombie NIR fixable dye (BioLegend) or LIVE/DEAD Fixable Aqua (Invitrogen) staining. […] Antigen-specific CD8 T-cells were analyzed after H-2Kb/OVA^257-264 dextramer staining (Immudex). […] All data were acquired on a BD LSR Fortessa (BD Biosciences) and analyzed with FlowJo v10 (TreeStar). […] Data was acquired with a Canto II flow cytometer (BD Biosciences) and analyzed using FACSDiva Software V6 (BD Biosciences).

For data set [4], the system named is DSS/anti-PD1-induced colitis. In words: Adoptive transfer of adiponectin-treated T-cells into colitis mice. It counts as in vivo. The settings on record: adiponectin-treated vs vehicle-treated T-cells. The protocol:
as §3
Colon, liver, skin and lung were harvested, formalin-fixed and paraffin embedded. Sections were stained with H&E and scored by an experienced pathologist, based on histopathological characterization of human irAEs, including lymphocyte and neutrophil infiltration, crypt abscesses, and apoptotic cells on a scale from 0 (absent) to 2 (massive). Scoring was done blinded to the experimental group.

Setting [5] is: retrospective analysis of 8 patients.
Setting [6] is: retrospective analysis of 13 patients.

“Also recorded” adds a separate entry of the source. Where two headings read alike, the source gives them in different places.

With `O=C(COc1ccc(C(=O)c2ccccc2)cc1)NC1CCN(Cc2ccccc2)CC1` [AdipoRon], in data set [1], the “ICI-induced colonic inflammation, combination with ECP” value is given as “synergized with ECP to reduce ICI-induced colonic inflammation”; the “severity of ICI-induced colitis (bodyweight, colon length, neutrophil and lymphocyte infiltration)” value is on record as “effective in anti-PD1-mediated colitis”. In data set [2], the “DSS/anti-CTLA4-induced colitis / intestinal inflammation” value is “reduced anti-CTLA-4-induced colitis; also recorded: also in DSS/anti-CTLA4-induced intestinal inflammation”. The “Arg1 (MFI) in BMDMs” value in data set [3] is given as “upregulation of immunosuppressive Arg1”.
Consider `COc1c(C)c2c(c(O)c1C/C=C(\C)CCC(=O)OCCN1CCOCC1)C(=O)OC2` [Mycophenolate mofetil], for which, in the data set with ICI-hepatitis, the Response entry is recorded as “Improved liver injury within 13; also recorded: Discharge of MMF after 68 days; also recorded: Liver function normalized within 3” and the Steroid reduction entry is on record as “Tapered from 60 to 10 mg/d; also recorded: Tapered from 500 to 10 mg/d; also recorded: Discontinuation after 1 year”. In addition, the ORR with ICI-hepatitis (retrospective, 8 patients, liver function tests to grade 1 or less) is recorded as 50%. Moreover, the Adverse events with ICI-hepatitis (retrospective, 8 patients) is given as 25%.
With `C=CC[C@@H]1/C=C(\C)C[C@H](C)C[C@H](OC)[C@H]2O[C@@](O)(C(=O)C(=O)N3CCCC[C@H]3C(=O)O[C@H](/C(C)=C/[C@@H]3CC[C@@H](O)[C@H](OC)C3)[C@H](C)[C@@H](O)CC1=O)[C@H](C)C[C@@H]2OC` [Tacrolimus], in the data set with ICI-hepatitis, the Response entry is recorded as “Decreasing ALT levels within 2-5” and the Steroid reduction entry is “Cessation at 12 months; also recorded: Cessation of prednisolone over 6”.
Infliximab: TNF antagonist: in the data set on ICI-hepatitis, the Response result was “Partial response, reduction of ALT” and the Steroid reduction entry is listed as “Tapering to 30%, off steroid at 14”. Besides, in the data set with ICI-colitis (setting [5]), the CR rate was 38% and the ORR is given as 50%. Also, in the data set on ICI-colitis (setting [6]), the CR is listed as 31% and the ORR is 45%. Also, the “ORR (clinical remission) / response rate” value in the data set on ICI-colitis is on record as 88%.
As to “Tocilizumab: interleukin-6 blockade by tocilizumab”, in the data set on ICI-colitis (human, in vivo), the “Adverse events, any grade” value is reported as 80% and the “Adverse events, grade 3-4” value is on record as 25%. In addition, the “patients with reduction in symptoms” value with ICI-colitis (prospective trial, best response during 8 weeks) was 8 of 10. In the data set on ICI-colitis (prospective, 10 patients, colitis improvement (≥1 grade reduction) within 8 weeks), the ORR was 80%. For the same molecule, in the data set with ICI-colitis (prospective, 10 patients), the CR was 0%.
As to “Vedolizumab: treatment for ICI-colitis in cited studies”, the endoscopic remission rate in the data set with ICI-colitis (retrospective case series, 28 patients refractory to steroids and/or infliximab) is 29%. Also, the “ORR (clinical remission) / response rate” value in the data set on ICI-colitis and in the data set on ICI-colitis (listed as vedolizumab) was 89% in each case.

B1: adiponectin: recombinant murine adiponectin (GenScript); protein hormone and adipokine (protein, UniProt Q60994 18-247, looked up)
Adiponectin: EDDVTTTEELAPALVPPPKGTCAGWMAGIPGHPGHNGTPGRDGRDGTPGEKGEKGDAGLLGPKGETGDVGMTGAEGPRGFPGTPGRKGEPGEAAYVYRSAFSVGLETRVTVPNVPIRFTKIFYNQQNHYDGSTGKFYCNIPGLYYFSYHITVYMKDVKVSLFKKDKAVLFTYDQYQEKNVDQASGSVLLHLEVGDQVWLQVYGDGDHNGLYADNVNDSTFTGFLLYHDTN
With B1, the “CD25 expression on CD4^+ and CD8^+ T-cells” value with pan T-cells (9 μg/mL) is “reduced the expression of CD25”. In addition, in the data set with pan T-cells, the “FoxP3 expression and CD4^+/CD8^+ T-cell frequencies” value is “no effect on FoxP3 expression and CD4^+/CD8^+ T-cell frequencies”. For the same molecule, in data set [1], the “ICI-induced colonic inflammation, combination with ECP” value is “synergized with ECP to reduce ICI-induced colonic inflammation”; the “severity of ICI-induced colitis (bodyweight, colon length, neutrophil and lymphocyte infiltration)” value is listed as “reduce the severity of colitis”. For the same molecule, in data set [4], the “colitis severity in recipients of treated T-cells” value was “Colitis severity was lower”. In data set [3], the “Arg1 (MFI) in BMDMs” value is listed as “upregulation of immunosuppressive Arg1”.
